{
  "source": "paper PMC6254361",
  "about": "“The properties of Msh2–Msh6 ATP binding mutants suggest a signal amplification mechanism in DNA mismatch repair” (The Journal of Biological Chemistry, 2018)",
  "target": "T1, Msh2–Msh6 (Saccharomyces cerevisiae, UniProt P25847+Q03834, P25847:K694M)",
  "T1 sequence (P25847 1-964 K694M)": "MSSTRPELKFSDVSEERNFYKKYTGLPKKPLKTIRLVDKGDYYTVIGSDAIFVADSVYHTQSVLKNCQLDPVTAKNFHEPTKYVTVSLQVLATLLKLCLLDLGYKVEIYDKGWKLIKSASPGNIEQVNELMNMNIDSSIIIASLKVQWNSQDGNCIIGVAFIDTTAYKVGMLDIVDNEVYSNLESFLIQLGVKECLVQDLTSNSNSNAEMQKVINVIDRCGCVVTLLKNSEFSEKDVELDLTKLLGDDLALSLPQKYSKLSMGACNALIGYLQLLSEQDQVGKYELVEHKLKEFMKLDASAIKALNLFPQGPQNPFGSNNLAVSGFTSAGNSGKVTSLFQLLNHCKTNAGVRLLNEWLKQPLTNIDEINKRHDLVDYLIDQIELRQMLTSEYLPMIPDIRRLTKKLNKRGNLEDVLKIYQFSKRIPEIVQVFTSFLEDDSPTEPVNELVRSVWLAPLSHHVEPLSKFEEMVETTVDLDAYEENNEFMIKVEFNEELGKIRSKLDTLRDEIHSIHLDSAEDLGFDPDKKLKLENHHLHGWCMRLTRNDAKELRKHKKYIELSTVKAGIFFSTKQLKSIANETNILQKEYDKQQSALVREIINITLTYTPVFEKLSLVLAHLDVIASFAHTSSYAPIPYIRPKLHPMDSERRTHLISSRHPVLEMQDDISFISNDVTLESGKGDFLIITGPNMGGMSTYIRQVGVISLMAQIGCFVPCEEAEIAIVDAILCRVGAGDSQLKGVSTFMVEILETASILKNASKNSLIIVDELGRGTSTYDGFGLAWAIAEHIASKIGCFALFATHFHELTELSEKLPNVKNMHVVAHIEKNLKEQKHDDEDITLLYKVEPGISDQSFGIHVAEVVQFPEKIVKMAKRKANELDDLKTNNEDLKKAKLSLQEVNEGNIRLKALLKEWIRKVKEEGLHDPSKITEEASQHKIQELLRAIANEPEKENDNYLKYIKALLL",
  "T1 sequence (Q03834 1-1242)": "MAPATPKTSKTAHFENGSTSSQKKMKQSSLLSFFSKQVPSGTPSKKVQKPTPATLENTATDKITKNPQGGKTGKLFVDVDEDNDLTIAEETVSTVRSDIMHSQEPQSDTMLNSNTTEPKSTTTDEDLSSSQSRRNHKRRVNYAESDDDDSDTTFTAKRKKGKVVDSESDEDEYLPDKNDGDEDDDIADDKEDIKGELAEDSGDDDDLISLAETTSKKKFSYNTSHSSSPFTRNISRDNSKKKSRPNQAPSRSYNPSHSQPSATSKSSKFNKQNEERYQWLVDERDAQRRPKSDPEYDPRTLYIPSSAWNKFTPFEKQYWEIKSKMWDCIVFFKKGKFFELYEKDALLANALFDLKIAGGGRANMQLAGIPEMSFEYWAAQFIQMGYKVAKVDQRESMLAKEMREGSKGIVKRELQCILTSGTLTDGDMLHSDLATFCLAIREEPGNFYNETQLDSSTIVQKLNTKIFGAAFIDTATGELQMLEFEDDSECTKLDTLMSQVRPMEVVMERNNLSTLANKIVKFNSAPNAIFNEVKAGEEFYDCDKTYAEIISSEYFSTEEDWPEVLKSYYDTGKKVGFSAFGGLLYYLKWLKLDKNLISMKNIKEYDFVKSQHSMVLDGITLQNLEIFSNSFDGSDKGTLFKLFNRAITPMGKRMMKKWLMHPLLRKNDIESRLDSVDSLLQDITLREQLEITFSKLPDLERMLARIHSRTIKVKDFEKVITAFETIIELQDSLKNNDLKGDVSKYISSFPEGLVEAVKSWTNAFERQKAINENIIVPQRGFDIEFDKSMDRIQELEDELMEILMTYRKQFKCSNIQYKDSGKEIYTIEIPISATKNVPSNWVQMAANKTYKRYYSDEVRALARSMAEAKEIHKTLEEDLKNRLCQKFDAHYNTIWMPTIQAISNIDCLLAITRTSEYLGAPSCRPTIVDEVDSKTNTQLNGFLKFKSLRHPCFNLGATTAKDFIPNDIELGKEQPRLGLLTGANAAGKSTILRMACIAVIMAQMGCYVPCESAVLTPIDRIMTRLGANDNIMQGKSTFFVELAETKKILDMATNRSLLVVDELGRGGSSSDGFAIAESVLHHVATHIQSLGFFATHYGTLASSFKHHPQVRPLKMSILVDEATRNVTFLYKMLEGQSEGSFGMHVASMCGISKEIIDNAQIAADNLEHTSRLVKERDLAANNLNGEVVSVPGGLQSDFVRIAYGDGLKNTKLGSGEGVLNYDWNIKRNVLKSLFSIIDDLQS",
  "experiment": "UV cross-linking of [γ-32P]ATP, SDS-PAGE, phosphorimaging",
  "assay_type": "binding",
  "settings": "labelled compound; no Mg2+, EDTA, pH 8, on ice; Msh2 site at 60 μM ATP, Msh6 site at 1 μM ATP",
  "data": [
    {"smiles": "Nc1ncnc2c1ncn2[C@@H]1O[C@H](COP(=O)(O)OP(=O)(O)OP(=O)(O)O)[C@@H](O)[C@H]1O", "note": "[ATP]", "values": [
      {"measurement": "relative ATP binding", "value": "Msh2(K694M)–Msh6 mutant complex was only defective for binding ATP to the Msh2 subunit"}
    ]}
  ]
}
